Test results published in patent publication US20230212222A1 (ANYGEN CO., LTD., priority 2020, published 2023).
Like-named read-outs stand apart in the source and are kept apart here. Square brackets hold non-standard residues; d marks the D form. Peptide text beside a SMILES is read from it. * marks the point of attachment. Tyr(3,5-(NO2)2) = N[C@@H](Cc1cc([N+](=O)[O-])c(O)c([N+](=O)[O-])c1)C(=O)O; His(Trt) = N[C@@H](Cc1cn(C(c2ccccc2)(c2ccccc2)c2ccccc2)cn1)C(=O)O; His(τ-CHPh2) = N[C@@H](Cc1cn(C(c2ccccc2)c2ccccc2)cn1)C(=O)O; dPhe(4-Me) = Cc1ccc(C[C@@H](N)C(=O)O)cc1; Dmt = Cc1cc(O)cc(C)c1C[C@H](N)C(=O)O; Lauroyl = CCCCCCCCCCCC(=O)*; Octanoyl = CCCCCCCC(=O)*

Key:
GPR39 [1] = target: T1, GPR39 (Homo sapiens, UniProt O43194); assay: luciferase assay system (SRE luciferase reporter gene) for GPR39 in CV-1 cells; details: for ECmax (-fold induction over basal): CV-1 cells
T1 sequence (O43194 1-453): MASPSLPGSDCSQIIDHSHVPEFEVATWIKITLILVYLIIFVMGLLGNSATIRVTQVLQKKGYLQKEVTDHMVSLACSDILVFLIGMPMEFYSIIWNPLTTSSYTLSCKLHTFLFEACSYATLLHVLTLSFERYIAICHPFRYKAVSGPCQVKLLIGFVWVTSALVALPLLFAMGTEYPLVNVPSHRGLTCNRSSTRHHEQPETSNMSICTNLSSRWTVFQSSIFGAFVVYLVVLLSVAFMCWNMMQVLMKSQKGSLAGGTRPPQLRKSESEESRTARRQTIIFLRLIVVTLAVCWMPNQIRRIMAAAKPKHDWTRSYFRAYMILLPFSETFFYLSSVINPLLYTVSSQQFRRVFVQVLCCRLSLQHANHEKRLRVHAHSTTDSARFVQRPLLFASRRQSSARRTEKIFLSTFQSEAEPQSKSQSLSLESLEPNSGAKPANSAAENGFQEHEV
Description: (§1) Specifically, the fibroblast cell line CV-1 (1×10^5 cells/ml, Korea Cell Line Bank) was cultured in a 96 well cell culture plate for 24 hours, and then treated with GPR39 inserted into adenovirus and SRE (serum response element) luciferase at 50 MOI (multiplicity of infection) and 25 MOI virus for 3 hours, respectively, and then cultured for 24 hours.

GPR39 [2] = target: T1, GPR39
Description: as §1

[3] = GPR39 and SRE luciferase adenovirus, treated 6 hours, luminometer

CCCCCCCC(=O)NCCCC[C@H](NC(=O)[C@@H](N)Cc1cn(C(c2ccccc2)(c2ccccc2)c2ccccc2)cn1)C(=O)N[C@H](Cc1ccc(C)cc1)C(=O)N[C@@H](Cc1ccc(O)cc1)C(=O)O [HKFY-30, ((R)-2-((S)-2-((S)-2-amino-3-(1-trityl-1H-imidazol-4-yl)propanamido)-6-octanamidohexanamido)-3-(p-tolyl)propanoyl)-L-tyrosine] (H-[His(Trt)]K(Octanoyl)[dPhe(4-Me)]Y-OH)
EC50 (GPR39 [1]; EC50, CV-1 cells, GPR39 and SRE luciferase adenovirus, treated 6 hours, luminometer): 8 ± 1 nM
ECmax value (in words) (GPR39 [1]; comment on Table 3): high ECmax value
activity level for GPR39 (in words) (GPR39 [1]; comment on Table 3, listed as HIKFY-30): most excellent activity
activity level for GPR39 (in words) (GPR39 [1]; comment on Table 3, listed as HJKFY-30): higher activity level than other HJKFY derivatives
ECmax (-fold induction over basal) (GPR39 [2]): 23.88 ± 3.04 -fold induction over basal

CCCCCCCC(=O)NCCCC[C@H](NC(=O)[C@@H](N)Cc1c[n+](CCCC2CCCCC2)cn1CCCC1CCCCC1)C(=O)N[C@@H](Cc1ccccc1)C(=O)N[C@@H](Cc1ccc(O)cc1)C(=O)O
EC50 (GPR39 [1]): 33700 ± 1300 nM
ECmax (-fold induction over basal) (GPR39 [1]; [3]): 17.3 ± 1.22 -fold induction over basal

CCCCCCCC(=O)NCCCC[C@H](NC(=O)[C@@H](N)Cc1c[nH]c(-c2cccs2)n1)C(=O)N[C@H](Cc1ccc(C)cc1)C(=O)N[C@@H](Cc1ccc(O)cc1)C(=O)O [HKFY-63, ((R)-2-((S)-2-((S)-2-amino-3-(2-(thiophen-2-yl)-1H-imidazol-4-yl)propanamido)-6-octanamidohexanamido)-3-(p-tolyl)propanoyl)-L-tyrosine]
activity level for GPR39 (in words) (GPR39 [1]; comment on Table 3): higher activity level than other HJKFY derivatives
ECmax (-fold induction over basal) (GPR39 [2]): 13.5 ± 1.8 -fold induction over basal

CCCCCCCC(=O)NCCCC[C@H](NC(=O)[C@@H](N)Cc1cn(C(c2ccccc2)c2ccccc2)cn1)C(=O)N[C@H](Cc1ccc(C)cc1)C(=O)N[C@@H](Cc1c(C)cc(O)cc1C)C(=O)O [HKFY-36, (S)-2-((R)-2-((S)-2-((S)-2-amino-3-(1-benzhydryl-1H-imidazol-4-yl)propanamido)-6-octanamidohexanamido)-3-(p-tolyl)propanamido)-3-(4-hydroxy-2,6-dimethylphenyl)propanoic acid] (H-[His(τ-CHPh2)]K(Octanoyl)[dPhe(4-Me)][Dmt]-OH)
EC50 (GPR39 [1]): 150 ± 50 nM
ECmax (-fold induction over basal) (GPR39 [1]; [3]): 9.9 ± 0.28 -fold induction over basal

CCCCCCCC(=O)NCCCC[C@H](NC(=O)[C@@H](N)Cc1cn(C(c2ccccc2)c2ccccc2)cn1)C(=O)N[C@H](Cc1ccc(C)cc1)C(=O)N[C@@H](Cc1cc([N+](=O)[O-])c(O)c([N+](=O)[O-])c1)C(=O)O [HKFY-69, (S)-2-((R)-2-((S)-2-((S)-2-amino-3-(1-benzhydryl-1H-imidazol-4-yl)propanamido)-6-octanamidohexanamido)-3-(p-tolyl)propanamido)-3-(4-hydroxy-3,5-dinitrophenyl)propanoic acid] (H-[His(τ-CHPh2)]K(Octanoyl)[dPhe(4-Me)][Tyr(3,5-(NO2)2)]-OH)
ECmax (-fold induction over basal) (GPR39 [1]; [3]): 12.2 ± 2.5 -fold induction over basal

CCCCCCCC(=O)NCCCC[C@H](NC(=O)[C@@H](N)Cc1cn(C(c2ccccc2)(c2ccccc2)c2ccccc2)cn1)C(=O)N[C@@H](Cc1ccccc1)C(=O)N[C@@H](Cc1ccc(O)cc1)C(=O)N[C@@H](CO)C(=O)N[C@@H](CCC(N)=O)C(=O)N[C@@H](CC(=O)O)C(=O)NCC(=O)N[C@@H](C)C(=O)N[C@@H](CCCNC(=N)N)C(=O)N[C@@H](Cc1ccccc1)C(N)=O [HKFY-41, (3S,6S,9S,12S,15S,18S)-3-((2-(((S)-1-(((S)-1-(((S)-1-amino-1-oxo-3-phenylpropan-2-yl)amino)-5-guanidino-1-oxopentan-2-yl)amino)-1-oxopropan-2-yl)amino)-2-oxoethyl)carbamoyl)-18-((S)-2-amino-3-(1-trityl-1H-imidazol-4-yl)propanamido)-6-(3-amino-3-oxopropyl)-15-benzyl-12-(4-hydroxybenzyl)-9-(hydroxymethyl)-5,8,11,14,17,24-hexaoxo-4,7,10,13,16,23-hexaazahentriacontanoic acid] (H-[His(Trt)]K(Octanoyl)FYSQDGARF-NH2)
ECmax (-fold induction over basal) (GPR39 [1]; [3]): 12.2 ± 0.02 -fold induction over basal

CCCCCCCC(=O)NCCCC[C@H](NC(=O)[C@@H](N)Cc1cncn1CCCC1CCCCC1)C(=O)N[C@@H](Cc1ccccc1)C(=O)N[C@@H](Cc1ccc(O)cc1)C(=O)O
ECmax (-fold induction over basal) (GPR39 [1]; [3]): 16 ± 2.2 -fold induction over basal

CCCCCCCCCCCC(=O)NCCCC[C@H](NC(=O)[C@@H](N)Cc1cn(C(c2ccccc2)(c2ccccc2)c2ccccc2)cn1)C(=O)N[C@@H](Cc1ccccc1)C(=O)N[C@@H](Cc1ccc(O)cc1)C(=O)O [HKFY-25, N6-dodecanoyl-N2-(Nt-trityl-L-histidyl)-L-lysyl-L-phenylalanyl-L-tyrosine] (H-[His(Trt)]K(Lauroyl)FY-OH)
ECmax (-fold induction over basal) (GPR39 [2]): 7.72 ± 0.57 -fold induction over basal

CCCCCCCC(=O)NCCCC[C@H](NC(=O)[C@@H](N)Cc1c[n+](CCCc2ccccc2)cn1CCCc1ccccc1)C(=O)N[C@@H](Cc1ccccc1)C(=O)N[C@@H](Cc1ccc(O)cc1)C(=O)O
ECmax (-fold induction over basal) (GPR39 [1]; [3]): 15 ± 2.12 -fold induction over basal

CCCCCCCC(=O)NCCCC[C@H](NC(=O)[C@@H](N)Cc1cn(S(=O)(=O)c2ccc(C)cc2)cn1)C(=O)N[C@H](Cc1ccc(C)cc1)C(=O)N[C@@H](Cc1ccc(O)cc1)C(=O)O [HKFY-75, ((R)-2-((S)-2-((S)-2-amino-3-(1-tosyl-1H-imidazol-4-yl)propanamido)-6-octanamidohexanamido)-3-(p-tolyl)propanoyl)-L-tyrosine]
ECmax (-fold induction over basal) (GPR39 [2]): 15.9 ± 4.12 -fold induction over basal

CCCCCCCC(=O)NCCCC[C@H](NC(=O)[C@@H](N)Cc1cn([C@H](c2ccccc2)c2ccc(Cl)cc2)cn1)C(=O)N[C@@H](Cc1ccccc1)C(=O)N[C@@H](Cc1ccc(O)cc1)C(=O)O [HKFY-21, N2-(Nt-((R)-(4-chlorophenyl)(phenyl)methyl)-L-histidyl)-N6-octanoyl-L-lysyl-L-phenylalanyl-L-tyrosine]
ECmax (-fold induction over basal) (GPR39 [2]): 18.3 ± 2.5 -fold induction over basal

CCCCCCCC(=O)NCCCC[C@H](NC(=O)[C@@H](N)Cc1cn(CCC2CCCCC2)cn1)C(=O)N[C@@H](Cc1ccccc1)C(=O)N[C@@H](Cc1ccc(O)cc1)C(=O)O [HKFY-11, N2-(Nt-(2-cyclohexylethyl)-L-histidyl)-N6-octanoyl-L-lysyl-L-phenylalanyl-L-tyrosine]
ECmax (-fold induction over basal) (GPR39 [2]): 22 ± 2.2 -fold induction over basal

CCCCCCCC(=O)NCCCC[C@H](NC(=O)[C@@H](N)Cc1cn(Cc2cccc3ccccc23)cn1)C(=O)N[C@@H](Cc1ccccc1)C(=O)N[C@@H](Cc1ccc(O)cc1)C(=O)O [HKFY-10, N2-(Nt-(naphthalen-1-ylmethyl)-L-histidyl)-N6-octanoyl-L-lysyl-L-phenylalanyl-L-tyrosine]
ECmax (-fold induction over basal) (GPR39 [2]): 14 ± 2.12 -fold induction over basal
